Experimental data published in the supplement of paper PMC11451515.

System: NOMO1
Assay: cell viability relative to DMSO control; higher = less cytotoxic
Conditions: 48 h
Summary of the method: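 Viability is a per-plate percentage relative to DMSO wells, with cell-free wells as background. CellTiter-Glo One luminescence was read after 48 h at 37°C on 1536-well plates (5 μl) of NOMO1 or SEM (500 cells/well) or P12-Ichikawa (1000 cells/well) leukemia cells. The cells had been adapted for at least four passages in each medium and pin-dosed with library compounds in DMSO from 47 μM to 0.79 nM in 11 threefold steps.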

[1] = HPLM + 10% dialyzed FBS, 0.000781 µM
[2] = HPLM + 10% dialyzed FBS, 0.00234 µM
[3] = HPLM + 10% dialyzed FBS, 0.00702 µM
[4] = HPLM + 10% dialyzed FBS, 0.0211 µM
[5] = HPLM + 10% dialyzed FBS, 0.0632 µM
[6] = HPLM + 10% dialyzed FBS, 0.19 µM
[7] = HPLM + 10% dialyzed FBS, 0.569 µM
[8] = HPLM + 10% dialyzed FBS, 1.71 µM
[9] = HPLM + 10% dialyzed FBS, 5.12 µM
[10] = HPLM + 10% dialyzed FBS, 15.4 µM
[11] = HPLM + 10% dialyzed FBS, 46.1 µM
[12] = RPMI 5 mM glucose + 10% FBS, 0.000781 µM
[13] = RPMI 5 mM glucose + 10% FBS, 0.00234 µM
[14] = RPMI 5 mM glucose + 10% FBS, 0.00702 µM
[15] = RPMI 5 mM glucose + 10% FBS, 0.0211 µM
[16] = RPMI 5 mM glucose + 10% FBS, 0.0632 µM
[17] = RPMI 5 mM glucose + 10% FBS, 0.19 µM
[18] = RPMI 5 mM glucose + 10% FBS, 0.569 µM
[19] = RPMI 5 mM glucose + 10% FBS, 1.71 µM
[20] = RPMI 5 mM glucose + 10% FBS, 5.12 µM
[21] = RPMI 5 mM glucose + 10% FBS, 15.4 µM
[22] = RPMI 5 mM glucose + 10% FBS, 46.1 µM
[23] = RPMI 5 mM glucose + 10% dialyzed FBS, 0.000781 µM
[24] = RPMI 5 mM glucose + 10% dialyzed FBS, 0.00234 µM
[25] = RPMI 5 mM glucose + 10% dialyzed FBS, 0.00702 µM
[26] = RPMI 5 mM glucose + 10% dialyzed FBS, 0.0211 µM
[27] = RPMI 5 mM glucose + 10% dialyzed FBS, 0.0632 µM
[28] = RPMI 5 mM glucose + 10% dialyzed FBS, 0.19 µM
[29] = RPMI 5 mM glucose + 10% dialyzed FBS, 0.569 µM
[30] = RPMI 5 mM glucose + 10% dialyzed FBS, 1.71 µM
[31] = RPMI 5 mM glucose + 10% dialyzed FBS, 5.12 µM
[32] = RPMI 5 mM glucose + 10% dialyzed FBS, 15.4 µM
[33] = RPMI 5 mM glucose + 10% dialyzed FBS, 46.1 µM

| Compound | cell viability [1] | cell viability [2] | cell viability [3] | cell viability [4] | cell viability [5] | cell viability [6] | cell viability [7] | cell viability [8] | cell viability [9] | cell viability [10] | cell viability [11] | cell viability [12] | cell viability [13] | cell viability [14] | cell viability [15] | cell viability [16] | cell viability [17] | cell viability [18] | cell viability [19] | cell viability [20] | cell viability [21] | cell viability [22] | cell viability [23] | cell viability [24] | cell viability [25] | cell viability [26] | cell viability [27] | cell viability [28] | cell viability [29] | cell viability [30] | cell viability [31] | cell viability [32] | cell viability [33] |
| --- | --- | --- | --- | --- | --- | --- | --- | --- | --- | --- | --- | --- | --- | --- | --- | --- | --- | --- | --- | --- | --- | --- | --- | --- | --- | --- | --- | --- | --- | --- | --- | --- | --- |
| Cc1cccc(C)c1OCC(=O)N[C@@H](Cc1ccccc1)[C@@H](O)C[C@H](Cc1ccccc1)NC(=O)[C@H](C(C)C)N1CCCNC1=O | 95.1% | 106% | 102% | 109% | 104% | 111% | 89% | 91.5% | 91.4% | 81% | 43.9% | 85.8% | 94% | 97.7% | 85.8% | 95.9% | 97.3% | 84% | 78.4% | 83% | 86.4% | 74.4% | 96.9% | 92.9% | 92.9% | 107% | 91.1% | 89.2% | 81.1% | 82.4% | 89.4% | 76.5% | 71% |
| CC1(C)C(=O)N(CCN2CCC(C(=O)c3ccc(F)cc3)CC2)c2ccccc21 | 117% | 115% | 120% | 141% | 151% | 138% | 162% | 128% | 119% | 129% | 88.7% | 120% | 124% | 120% | 131% | 141% | 142% | 128% | 133% | 117% | 122% | 82.1% | 116% | 120% | 134% | 136% | 134% | 134% | 148% | 132% | 120% | 113% | 84.1% |
| CCC[C@H](N[C@@H](C)C(=O)N1[C@H](C(=O)O)C[C@@H]2CCCC[C@@H]21)C(=O)OCC | 115% | 124% | 119% | 119% | 105% | 102% | 115% | 89.4% | 36% | 54.1% | 43.9% | 97.4% | 101% | 115% | 109% | 111% | 106% | 105% | 95.3% | 86.7% | 78.9% | 64.6% | 114% | 110% | 118% | 116% | 108% | 109% | 96.2% | 87.5% | 66.4% | 72.6% | 48.2% |
| CCc1c(C(=O)C(N)=O)c2c(OCC(=O)O)cccc2n1Cc1ccccc1 | 113% | 105% | 94.9% | 103% | 122% | 103% | 107% | 100% | 89.4% | 90.8% | 96.5% | 92% | 105% | 91.1% | 103% | 104% | 93.1% | 89.2% | 103% | 98.2% | 100% | 92.3% | 95.3% | 103% | 105% | 101% | 105% | 86.9% | 103% | 96.6% | 96.3% | 91.6% | 92% |
| Oc1ccc(C2CCN(c3ccnc4ccccc34)CC2)cc1O | 101% | 107% | 115% | 101% | 123% | 124% | 113% | 123% | 94.1% | 82.9% | 55.6% | 108% | 109% | 97.5% | 101% | 107% | 123% | 108% | 120% | 98.9% | 95.7% | 48.6% | 91.9% | 99% | 97.9% | 83.8% | 104% | 96.4% | 103% | 109% | 111% | 98.1% | 70.9% |
| CC(C)Nc1cc(C(F)(F)F)cc2nc(NC(=O)c3cccnc3)nn12 | 120% | 116% | 118% | 126% | 123% | 101% | 119% | 85.2% | 80.8% | 71.6% | 54.2% | 106% | 107% | 115% | 106% | 98.1% | 118% | 116% | 52.6% | 45.9% | 56.5% | 64.8% | 108% | 109% | 115% | 119% | 125% | 103% | 98.2% | 55% | 50.4% | 56.9% | 62.9% |
| O=C1Nc2ccc(Cl)cc2[C@@](C#CC2CC2)(C(F)(F)F)O1 | 74.7% | 97% | 76.4% | 85.9% | 97% | 84.8% | 80.2% | 81.4% | 59% | 57.2% | 79.8% | 73.7% | 78.2% | 77.1% | 80.7% | 88.7% | 80.8% | 79.3% | 80.4% | 81.3% | 77.3% | 12.5% | 70.1% | 90.1% | 92.3% | 101% | 97.9% | 95.9% | 95.6% | 93.2% | 86.7% | 95.7% | 78.3% |
